According to patent US5602278A (priority 1994, dated 1997):
Entries after “also recorded” stand apart in the source; their conditions may differ.

How the values were obtained:
[1] = system: hypoxic cells; conditions: Wilson et al., 1992; cited from earlier work
[2] = system: CaNT murine adenocarcinoma; design: species or system CBA/Gy fTO mice; conditions: mouse
[3] = In vitro metabolism by rat liver microsomes under hypoxic or oxic conditions
[4] = system: EMT6 mouse mammary carcinoma cells

| SMILES | ability to diffuse into the extravascular compartment of tumors [1] | selectivity for hypoxic cells [1] | potentiation of in vivo cytotoxicity by hydralazine [2] | activity compared to radiation, with concomitant hydralazine ([2]; in vivo) | dependence of rate of metabolism on amount of cyt P450 ([3]; hypoxia, NADPH 1 mM, microsomes 2.0-5.2 nmol cyt P450/ml) | metabolism ([3]; in air or in the presence of boiled microsomes) | metabolism with NADPH ([3]; in the presence of NADPH, microsomes, hypoxia) | major enzyme responsible for activation ([3]; microsomal bioreductive activation) | effect of CO on reductive metabolism ([3]; microsomes 2.9 nmol cyt P450/ml, NADPH 1 mM, hypoxia) | metabolism ([3]; microsomes and cofactors NADH or NADPH, under hypoxia) | conditions required for conversion to an activated alkylating species ([3]; rat liver microsomes, cofactors, inhibitors) | effect of hypoxia and lowered pH on cytotoxicity [4] | effect of lowered extracellular pH on activity [4] | toxicity with reducing enzymes under hypoxia [4] | in vivo toxicity |
| --- | --- | --- | --- | --- | --- | --- | --- | --- | --- | --- | --- | --- | --- | --- | --- |
| C[N+](C)([O-])CCCNc1c2ccccc2nc2cccc([N+](=O)[O-])c12 [SN 24030] | improved ability to diffuse into the extravascular compartment of tumors | approximately 1500 fold | – | – | – | – | – | – | – | – | – | – | – | – | – |
| O=C(O)CCCc1ccc(N(CCCl)OCCCl)cc1 [CHL-HD, 4-[p-(N-2-chloroethoxy N-2-chloroethylamino)phenyl] butanoic acid] | – | – | potentiated by the administration of hydralazine 5 min prior or 30 post; also recorded: potentiated by hydralazine | enhanced activity as compared to radiation | there is a relationship between the amount of cyt P450 in the metabolic reaction mixture and the rate of metabolism | very little if any metabolism | metabolism occurs more readily at lower concentrations of cofactor | appears to be cyt P450 | CO inhibits the ability of microsomes to metabolize CHL-HD | is metabolized | reducing enzymes, co-factors and hypoxia were needed to activate CHL-HD to an alkylating species; also recorded: requires hypoxia and reducing enzymes and cofactors | both hypoxia and lowered pH in the presence of reducing enzymes potentiate to cytotoxicity | enhance when the extracellular pH is lowered below the physiological 7.4 | greater toxicity with reducing enzymes under hypoxia | minimal in vivo toxicity |
